Where two headings read alike, the source gives them in different places.

For 17 molecules, IC50 results are on record in patent publication US20240109917A1 (ACTELION PHARMACEUTICALS LTD, priority 2020, published 2024).

Assay [1] concerns the target His6-TEV-PDGFRβ (557-1016) (Homo sapiens (Human), UniProt P09619). Put plainly: PDGFRβ HTRF Assay. The assay is classed as biochemical. The conditions noted are these: read-out: PDGFR HTRF IC50. The procedure, abridged:
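HTRF KinEASE-TK readout (665/620 nm ratio) of TK-biotin substrate phosphorylation by His-tagged PDGFRβ kinase domain. Enzyme and inhibitor preincubated 30 min, then ATP/substrate added for 3 h at room temperature before 60 min EDTA quench/detection.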
A general note: TR-FRET usually uses a lanthanide donor and a delayed reading to cut background.

For assay [2], the target named is Tb-labeled inactive PDGFRβ (Homo sapiens (Human), UniProt P09619). The assay is described as follows: PDGFRβ LanthaScreen Assay. The assay is classed as binding. As to conditions: read-out: PDGFR Lantha IC50.
Tb-labeled inactive PDGFRβ, sequence (P09619 33-1106): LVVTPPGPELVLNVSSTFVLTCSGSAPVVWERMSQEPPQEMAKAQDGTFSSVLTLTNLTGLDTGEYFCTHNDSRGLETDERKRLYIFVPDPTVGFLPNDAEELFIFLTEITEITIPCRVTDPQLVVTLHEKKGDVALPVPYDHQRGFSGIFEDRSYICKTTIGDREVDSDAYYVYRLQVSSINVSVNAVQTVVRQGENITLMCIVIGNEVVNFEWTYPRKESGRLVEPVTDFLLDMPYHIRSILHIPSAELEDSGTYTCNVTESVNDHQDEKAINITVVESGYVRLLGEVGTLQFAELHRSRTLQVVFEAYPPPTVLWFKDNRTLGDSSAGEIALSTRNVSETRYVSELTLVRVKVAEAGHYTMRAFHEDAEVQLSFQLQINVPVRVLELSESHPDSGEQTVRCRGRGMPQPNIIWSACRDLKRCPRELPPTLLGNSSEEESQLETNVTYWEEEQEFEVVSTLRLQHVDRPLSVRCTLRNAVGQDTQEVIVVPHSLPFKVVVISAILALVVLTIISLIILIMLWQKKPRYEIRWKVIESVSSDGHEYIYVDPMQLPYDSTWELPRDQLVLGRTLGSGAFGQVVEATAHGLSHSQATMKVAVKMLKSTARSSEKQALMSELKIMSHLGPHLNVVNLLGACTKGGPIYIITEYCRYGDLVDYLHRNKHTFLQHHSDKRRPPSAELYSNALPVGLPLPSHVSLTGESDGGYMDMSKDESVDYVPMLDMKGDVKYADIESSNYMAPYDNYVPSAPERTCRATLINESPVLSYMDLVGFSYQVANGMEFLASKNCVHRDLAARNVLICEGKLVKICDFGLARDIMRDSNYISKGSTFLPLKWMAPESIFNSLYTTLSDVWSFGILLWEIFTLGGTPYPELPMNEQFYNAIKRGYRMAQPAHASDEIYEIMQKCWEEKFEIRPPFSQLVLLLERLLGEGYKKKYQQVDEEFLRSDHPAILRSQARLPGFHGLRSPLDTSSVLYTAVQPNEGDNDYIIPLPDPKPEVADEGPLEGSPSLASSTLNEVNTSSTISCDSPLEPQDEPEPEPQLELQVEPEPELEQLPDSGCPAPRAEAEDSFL
Assay [3] deals with PDGFRβ (Rattus norvegicus (Rat), UniProt Q05030). The assay is described as follows: PDGFRβ Cellular Assay (PDGFRb P-Y751 HTRF in A10 cells stimulated with PDGF-BB). The assay is classed as cell-based. In short, it runs like this: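 Phospho-Y751 PDGFRβ was measured by HTRF in lysates of A10 rat cells. Cells received compound for 3 hours before PDGF-BB stimulation (100 ng/mL working stock).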
PDGFRβ, sequence (Q05030 32-1097): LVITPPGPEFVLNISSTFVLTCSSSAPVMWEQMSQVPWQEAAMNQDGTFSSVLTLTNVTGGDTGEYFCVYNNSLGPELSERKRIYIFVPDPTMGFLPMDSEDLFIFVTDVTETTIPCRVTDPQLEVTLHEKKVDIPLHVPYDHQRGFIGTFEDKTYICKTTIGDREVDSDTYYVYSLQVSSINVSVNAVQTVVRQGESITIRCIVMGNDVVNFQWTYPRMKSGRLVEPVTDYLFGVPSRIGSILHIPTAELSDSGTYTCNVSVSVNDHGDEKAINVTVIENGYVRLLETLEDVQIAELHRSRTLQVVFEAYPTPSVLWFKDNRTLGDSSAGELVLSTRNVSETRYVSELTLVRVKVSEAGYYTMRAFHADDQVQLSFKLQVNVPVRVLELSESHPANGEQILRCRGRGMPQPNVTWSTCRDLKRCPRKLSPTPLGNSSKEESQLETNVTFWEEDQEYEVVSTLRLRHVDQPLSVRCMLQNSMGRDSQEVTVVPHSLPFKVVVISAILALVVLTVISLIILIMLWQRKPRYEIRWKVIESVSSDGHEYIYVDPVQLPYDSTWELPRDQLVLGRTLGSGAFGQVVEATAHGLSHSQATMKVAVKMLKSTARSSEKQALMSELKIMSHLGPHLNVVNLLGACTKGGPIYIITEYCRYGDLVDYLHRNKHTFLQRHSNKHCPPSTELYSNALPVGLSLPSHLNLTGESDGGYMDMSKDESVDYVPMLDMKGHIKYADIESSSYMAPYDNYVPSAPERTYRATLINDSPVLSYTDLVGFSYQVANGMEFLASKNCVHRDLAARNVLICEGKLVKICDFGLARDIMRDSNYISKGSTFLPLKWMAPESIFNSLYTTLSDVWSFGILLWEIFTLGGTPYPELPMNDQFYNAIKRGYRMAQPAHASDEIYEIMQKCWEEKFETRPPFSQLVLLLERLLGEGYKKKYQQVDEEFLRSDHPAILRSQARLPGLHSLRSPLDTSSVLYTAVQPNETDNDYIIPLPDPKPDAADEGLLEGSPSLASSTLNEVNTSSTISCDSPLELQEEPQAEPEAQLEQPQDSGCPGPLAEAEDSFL

His6-TEV-PDGFRβ (557-1016), sequence (P09619 557-1016): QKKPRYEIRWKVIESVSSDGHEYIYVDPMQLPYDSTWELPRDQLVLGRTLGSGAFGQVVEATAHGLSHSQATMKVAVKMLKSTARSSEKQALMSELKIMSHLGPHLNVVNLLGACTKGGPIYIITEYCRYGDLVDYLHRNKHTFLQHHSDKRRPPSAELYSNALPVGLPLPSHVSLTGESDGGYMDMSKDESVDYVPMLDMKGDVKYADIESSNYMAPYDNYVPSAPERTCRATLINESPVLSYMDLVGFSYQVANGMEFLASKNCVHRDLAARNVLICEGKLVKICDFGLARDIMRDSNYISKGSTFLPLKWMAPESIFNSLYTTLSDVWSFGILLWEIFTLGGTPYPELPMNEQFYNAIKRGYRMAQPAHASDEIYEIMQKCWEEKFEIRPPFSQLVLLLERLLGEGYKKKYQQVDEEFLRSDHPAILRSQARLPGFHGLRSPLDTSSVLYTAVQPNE

By IC50 is commonly meant the concentration that inhibits the measured activity by half. For `Cc1ncc(NC(=O)CN2CCc3cnccc3C2)cc1NC(=O)c1cnn2cc(-c3cnn(C)c3)sc12` [Example 62, N-(5-(2-(3,4-dihydro-2,6-naphthyridin-2 (1H)-yl)acetamido)-2-methylpyridin-3-yl)-2-(1-methyl-1H-pyrazol-4-yl)pyrazolo[5,1-b]thiazole-7-carboxamide], the IC50 in assay [1] was 1.4 nM; in assay [2], 17.6 nM; in assay [3] (read-out: PDGFR Cellular IC50), 111 nM.

In the case of `Cc1ncc(NC(=O)CN2CCc3ncccc3C2)cc1NC(=O)c1cnn2cc(-c3cnn(C)c3)sc12` [Example 63, N-(5-(2-(7,8-dihydro-1,6-naphthyridin-6 (5H)-yl)acetamido)-2-methylpyridin-3-yl)-2-(1-methyl-1H-pyrazol-4-yl)pyrazolo[5,1-b]thiazole-7-carboxamide], the IC50 in assay [1] came to 2.9 nM; in assay [2], 42.9 nM; in assay [3] (read-out: PDGFR Cellular IC50), 223 nM.

With `Cc1ncc(NC(=O)CN2CCO[C@@H](C)C2)cc1NC(=O)c1cnn2cc(-c3cnn(C)c3)sc12` [Example 64, (S)-2-(1-methyl-1H-pyrazol-4-yl)-N-(2-methyl-5-(2-(2-methylmorpholino)acetamido)pyridin-3-yl)pyrazolo[5,1-b]thiazole-7-carboxamide], the IC50 came out at 0.4 nM in assay [1], 6.3 nM in assay [2] and 8.6 nM in assay [3] (read-out: PDGFR Cellular IC50).

Take `CC[C@@H]1CN(CC(=O)Nc2cnc(C)c(NC(=O)c3cnn4cc(-c5cnn(C)c5)sc34)c2)CCO1` [Example 65, (R)—N-(5-(2-(2-ethylmorpholino)acetamido)-2-methylpyridin-3-yl)-2-(1-methyl-1H-pyrazol-4-yl)pyrazolo[5,1-b]thiazole-7-carboxamide]: the IC50 was 0.7 nM in assay [1], 16.5 nM in assay [2] and 6.8 nM in assay [3] (read-out: PDGFR Cellular IC50).

Turning to `CC[C@H]1CN(CC(=O)Nc2cnc(C)c(NC(=O)c3cnn4cc(-c5cnn(C)c5)sc34)c2)CCO1` [Example 66, (S)—N-(5-(2-(2-ethylmorpholino)acetamido)-2-methylpyridin-3-yl)-2-(1-methyl-1H-pyrazol-4-yl)pyrazolo[5,1-b]thiazole-7-carboxamide], the concentration for half-maximal inhibition (IC50) came out at 0.3 nM in assay [1], 2.6 nM in assay [2] and 4.6 nM in assay [3] (read-out: PDGFR Cellular IC50).

As for `Cc1ncc(NC(=O)CN2CCOC(C)(C)C2)cc1NC(=O)c1cnn2cc(-c3cnn(C)c3)sc12` [Example 67, N-(5-(2-(2,2-dimethylmorpholino)acetamido)-2-methylpyridin-3-yl)-2-(1-methyl-1H-pyrazol-4-yl)pyrazolo[5,1-b]thiazole-7-carboxamide], the results for the IC50 in assay [1], in assay [2] and in assay [3] (read-out: PDGFR Cellular IC50) were 1 nM, 5.7 nM and 8.3 nM, respectively.

For the molecule `Cc1ncc(NC(=O)CN2CCOCC2(C)C)cc1NC(=O)c1cnn2cc(-c3cnn(C)c3)sc12` [Example 68, N-(5-(2-(3,3-dimethylmorpholino)acetamido)-2-methylpyridin-3-yl)-2-(1-methyl-1H-pyrazol-4-yl)pyrazolo[5,1-b]thiazole-7-carboxamide], the IC50 was 0.8 nM in assay [1], 8.1 nM in assay [2] and 19.1 nM in assay [3] (read-out: PDGFR Cellular IC50).

Take `CC[C@@H]1COCCN1CC(=O)Nc1cnc(C)c(NC(=O)c2cnn3cc(-c4cnn(C)c4)sc23)c1` [Example 69, (R)—N-(5-(2-(3-ethylmorpholino)acetamido)-2-methylpyridin-3-yl)-2-(1-methyl-1H-pyrazol-4-yl)pyrazolo[5,1-b]thiazole-7-carboxamide]: the results for the IC50 in assay [1], in assay [2] and in assay [3] (read-out: PDGFR Cellular IC50) were 0.5 nM, 4.7 nM and 12.1 nM, respectively.

As for `CC[C@H]1COCCN1CC(=O)Nc1cnc(C)c(NC(=O)c2cnn3cc(-c4cnn(C)c4)sc23)c1` [Example 70, (S)—N-(5-(2-(3-ethylmorpholino)acetamido)-2-methylpyridin-3-yl)-2-(1-methyl-1H-pyrazol-4-yl)pyrazolo[5,1-b]thiazole-7-carboxamide], the IC50 in assay [1] was determined as 0.2 nM; in assay [2] it was 2.9 nM; in assay [3] (read-out: PDGFR Cellular IC50) it was 6.4 nM.

As for `Cc1ncc(NC(=O)CN2[C@H](C)COC[C@@H]2C)cc1NC(=O)c1cnn2cc(-c3cnn(C)c3)sc12` [Example 71, N-(5-(2-((3S,5R)-3,5-dimethylmorpholino)acetamido)-2-methylpyridin-3-yl)-2-(1-methyl-1H-pyrazol-4-yl)pyrazolo[5,1-b]thiazole-7-carboxamide], the IC50 in assay [1] came to 2.9 nM; in assay [2], 47.9 nM; in assay [3] (read-out: PDGFR Cellular IC50) it was 90.9 nM.

As for `Cc1ncc(NC(=O)CN2CCN(C)C(=O)C2)cc1NC(=O)c1cnn2cc(-c3cnn(C)c3)sc12` [Example 72, 2-(1-methyl-1H-pyrazol-4-yl)-N-(2-methyl-5-(2-(4-methyl-3-oxopiperazin-1-yl)acetamido)pyridin-3-yl)pyrazolo[5,1-b]thiazole-7-carboxamide], the 50% inhibitory concentration (IC50) in assay [1] is 5.7 nM; in assay [2], 112 nM; in assay [3] (read-out: PDGFR Cellular IC50), greater than 3000 nM.

Take `Cc1ncc(NC(=O)CN2CCC(F)(F)C2)cc1NC(=O)c1cnn2cc(-c3cnn(C)c3)sc12` [Example 73, N-(5-(2-(3,3-difluoropyrrolidin-1-yl)acetamido)-2-methylpyridin-3-yl)-2-(1-methyl-1H-pyrazol-4-yl)pyrazolo[5,1-b]thiazole-7-carboxamide]: the IC50 in assay [1] was found to be 0.3 nM; in assay [2], 1.7 nM; in assay [3] (read-out: PDGFR Cellular IC50), 3.2 nM.

Regarding `Cc1ncc(NC(=O)CN2CCOC[C@@H]2C)cc1NC(=O)c1cnn2cc(-c3cnn(C)c3)sc12` [Example 74, (S)-2-(1-methyl-1H-pyrazol-4-yl)-N-(2-methyl-5-(2-(3-methylmorpholino)acetamido)pyridin-3-yl)pyrazolo[5,1-b]thiazole-7-carboxamide], the IC50 in assay [1] stood at 1 nM; in assay [2], 24.2 nM; in assay [3] (PDGFR Cellular IC50) it was 41.6 nM.

With `Cc1ncc(NC(=O)CN2CCn3ccnc3C2)cc1NC(=O)c1cnn2cc(-c3cnn(C)c3)sc12` [Example 75, N-(5-(2-(5,6-dihydroimidazo[1,2-a]pyrazin-7 (8H)-yl)acetamido)-2-methylpyridin-3-yl)-2-(1-methyl-1H-pyrazol-4-yl)pyrazolo[5,1-b]thiazole-7-carboxamide], the IC50 in assay [1] is 4.1 nM; in assay [2], 47 nM; in assay [3] (read-out: PDGFR Cellular IC50) it was 2750 nM.

On to `Cc1ncc(NC(=O)CN2Cc3ncsc3C2)cc1NC(=O)c1cnn2cc(-c3cnn(C)c3)sc12` [Example 76, N-(5-(2-(4H-pyrrolo[3,4-d]thiazol-5 (6H)-yl)acetamido)-2-methylpyridin-3-yl)-2-(1-methyl-1H-pyrazol-4-yl)pyrazolo[5,1-b]thiazole-7-carboxamide], for which the IC50 worked out at 0.9 nM in assay [1], 8.9 nM in assay [2] and 36.9 nM in assay [3] (read-out: PDGFR Cellular IC50).

For `Cc1ncc(NC(=O)CN2Cc3ccncc3C2)cc1NC(=O)c1cnn2cc(-c3cnn(C)c3)sc12` [Example 77, N-(5-(2-(1H-pyrrolo[3,4-c]pyridin-2 (3H)-yl)acetamido)-2-methylpyridin-3-yl)-2-(1-methyl-1H-pyrazol-4-yl)pyrazolo[5,1-b]thiazole-7-carboxamide], the figures for the IC50 in assay [1], in assay [2] and in assay [3] (read-out: PDGFR Cellular IC50) were 1.8 nM, 15.9 nM and 78.9 nM, respectively.

For the molecule `Cc1ncc(NC(=O)CN2CCOCC23CCC3)cc1NC(=O)c1cnn2cc(-c3cnn(C)c3)sc12` [Example 78, N-(5-(2-(8-oxa-5-azaspiro[3.5]nonan-5-yl)acetamido)-2-methylpyridin-3-yl)-2-(1-methyl-1H-pyrazol-4-yl)pyrazolo[5,1-b]thiazole-7-carboxamide], the results for the 50% inhibitory concentration (IC50) in assay [1], in assay [2] and in assay [3] (read-out: PDGFR Cellular IC50) were 0.9 nM, 5.7 nM and 12.1 nM, respectively.
